From patent US20140081017A1, “Histone Deacetylase Inhibitors for Enhancing Activity of Antifungal Agents” (METHYLGENE INC., priority 2012, published 2014)
Converted amounts (≈) assume the structure as drawn. Like-named read-outs stand apart in the source and are kept apart here.

Legend:
[1] = test system: C. glabrata; experiment: Checkerboard FIC assay in combination with fluconazole (MIC alone and in combination, FICI); format: cell-based, Candida glabrata; conditions: for FICI of combination resulting in fluconazole MIC of: 2 ug/mL / FICI of combination resulting in fluconazole MIC of: 4 ug/mL / FICI of combination resulting in fluconazole MIC of: 8 ug/mL: FICI calculated using a fluconazole MIC of 16 μg/mL; for FICI of combination resulting in fluconazole MIC of: 2 ug/mL (value in parenthesis) / FICI of combination resulting in fluconazole MIC of: 4 ug/mL (value in parenthesis) / FICI of combination resulting in fluconazole MIC of: 8 ug/mL (value in parenthesis): FICI using a fluconazole MIC of 128 μg/mL; for MIC: Nakaseomyces glabratus; for Multiple of compound MIC to synergize fluconazole MIC to 2 ug/mL / Multiple of compound MIC to synergize fluconazole MIC to 4 ug/mL / Multiple of compound MIC to synergize fluconazole MIC to 8 ug/mL: concentration in combination as multiple of the compound's MIC alone; for Multiple of compound MIC to synergize fluconazole MIC to 2 ug/mL: fluconazole MIC 2 ug/mL; for Multiple of compound MIC to synergize fluconazole MIC to 4 ug/mL: fluconazole MIC 4 ug/mL; for Multiple of compound MIC to synergize fluconazole MIC to 8 ug/mL: fluconazole MIC 8 ug/mL; for Concentration of Methylgene compound to synergize fluconazole MIC to 2 ug/mL / Concentration of Methylgene compound to synergize fluconazole MIC to 4 ug/mL / Concentration of Methylgene compound to synergize fluconazole MIC to 8 ug/mL: in combination with fluconazole; for Concentration of Methylgene compound to synergize fluconazole MIC to 2 ug/mL: fluconazole MIC lowered to 2 ug/mL; for Concentration of Methylgene compound to synergize fluconazole MIC to 4 ug/mL: fluconazole MIC lowered to 4 ug/mL; for Concentration of Methylgene compound to synergize fluconazole MIC to 8 ug/mL: fluconazole MIC lowered to 8 ug/mL
In short: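 A fluconazole synergy checkerboard was run against C. glabrata in MOPS-buffered RPMI (pH 7.0) for about 48 h at 35 °C. Each agent was diluted 2-fold, with one row and one column holding each agent alone for MIC determination. FICI was calculated from these MICs, using a 0.5 McFarland inoculum diluted 1:100 per CLSI.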

[2] = test system: Candida albicans; experiment: Minimal Inhibitory Concentration (MIC) assay, broth microdilution per CLSI; format: cell-based; conditions: Candida albicans, read-out: Minimum Inhibitory Concentrations against Yeast Isolates, Candida albicans;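 note: two read times 24 hr and 48 hr of incubation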
In short: (§1)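 Steps: overnight yeast growth on Sabouraud dextrose agar at 35° C; 0.5 McFarland saline suspension diluted 1:100 in RPMI (0.165 M MOPS, pH 7.0); inoculation into twofold compound dilutions; incubation 24-48 hr at 35° C; MIC scored as lowest concentration without visible growth.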

[3] = test system: Candida glabrata; experiment: as above; format: cell-based; conditions: Nakaseomyces glabratus, read-out: Minimum Inhibitory Concentrations against Yeast Isolates, Candida glabrata;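 note: two read times 24 hr and 48 hr of incubation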
In short: as §1

[4] = test system: Candida parapsilosis; experiment: as above; format: cell-based; conditions: Lodderomyces parapsilosis, read-out: Minimum Inhibitory Concentrations against Yeast Isolates, Candida parapsilosis;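 note: two read times 24 hr and 48 hr of incubation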
In short: as §1

[5] = MIC of the example compound alone against C. glabrata in the checkerboard assay, approximately 48 hr, read-out: Methylgene MIC
[6] = test compound alone, C. glabrata, approx. 48 hr at 35° C., read-out: Compound MIC
[7] = 24 hr reading (first value of cell 24 hr/48 hr)
[8] = 48 hr reading (second value of cell 24 hr/48 hr)

Compound	FICI of combination resulting in fluconazole MIC of: 2 ug/mL ([1]; C. glabrata)	FICI of combination resulting in fluconazole MIC of: 4 ug/mL ([1]; C. glabrata)	FICI of combination resulting in fluconazole MIC of: 8 ug/mL ([1]; C. glabrata)	FICI of combination resulting in fluconazole MIC of: 2 ug/mL (value in parenthesis) ([1]; C. glabrata)	FICI of combination resulting in fluconazole MIC of: 4 ug/mL (value in parenthesis) ([1]; C. glabrata)	FICI of combination resulting in fluconazole MIC of: 8 ug/mL (value in parenthesis) ([1]; C. glabrata)	MIC [1, 5] [µg/mL]	MIC [1, 6] [µg/mL]	Multiple of compound MIC to synergize fluconazole MIC to 2 ug/mL [1]	Multiple of compound MIC to synergize fluconazole MIC to 4 ug/mL [1]	Multiple of compound MIC to synergize fluconazole MIC to 8 ug/mL [1]	Concentration of Methylgene compound to synergize fluconazole MIC to 2 ug/mL ([1]; C. glabrata) [µg/mL]	Concentration of Methylgene compound to synergize fluconazole MIC to 4 ug/mL ([1]; C. glabrata) [µg/mL]	Concentration of Methylgene compound to synergize fluconazole MIC to 8 ug/mL ([1]; C. glabrata) [µg/mL]	MIC [2, 7] [µg/mL]	MIC [2, 8] [µg/mL]	MIC [3, 7] [µg/mL]	MIC [3, 8] [µg/mL]	MIC [4, 7] [µg/mL]	MIC [4, 8] [µg/mL]
CC(=O)Nc1ccc(CCCCc2ccc(CC(=O)NO)cc2)cc1 [Example 39, 2-(4-(4-(4-acetamidophenyl)butyl)phenyl)-N-hydroxyacetamide]	0.375	0.375	0.563	0.266	0.156	0.125	16	16	(¼x)	(⅛x)	( 1/16x)	4	2	1	> 8	> 8	> 8	> 8	> 8	> 8
COCCOCCOCC(=O)Nc1cccc(CCCCc2ccc(CC(=O)NO)cc2)c1 [Example 40, N-hydroxy-2-(4-(4-(3-(2-(2-(2-methoxyethoxy)ethoxy)acetamido)phenyl)butyl)phenyl)acetamide]	0.313	0.250	0.375	0.266	0.156	0.188	16	16	(¼x)	(⅛x)	(⅛x)	4	2	2	> 64	> 64	2 (≈ 4.36 µM)	32 (≈ 69.8 µM)	> 64	> 64
O=C(Cc1ccc(CCCCc2cccc(NC(=O)CO)c2)cc1)NO [Example 41, N-hydroxy-2-(4-(4-(3-(2-hydroxyacetamido)phe-nyl)butyl)phenyl)acetamide]	0.563	0.375	0.500	0.516	0.281	0.313	16	16	(½x)	(¼x)	(¼x)	8	4	4	> 32	> 32	4 (≈ 11.2 µM)	16 (≈ 44.9 µM)	> 32	> 32
CC(=O)Nc1cccc(CCCCc2ccc(CC(=O)NO)cc2)c1 [Example 42, 2-(4-(4-(3-acetamidophenyl)butyl)phenyl)-N-hydroxyacetamide]	0.313	0.375	0.375	0.266	0.281	0.188	16	16	(¼x)	(¼x)	(⅛x)	4	4	2	> 32	> 32	8 (≈ 23.5 µM)	16 (≈ 47 µM)	> 32	> 32

Now from value to molecule:

FICI of combination resulting in fluconazole MIC of: 2 ug/mL ([1]; C. glabrata)	FICI of combination resulting in fluconazole MIC of: 4 ug/mL ([1]; C. glabrata)	FICI of combination resulting in fluconazole MIC of: 8 ug/mL ([1]; C. glabrata)	FICI of combination resulting in fluconazole MIC of: 2 ug/mL (value in parenthesis) ([1]; C. glabrata)	FICI of combination resulting in fluconazole MIC of: 4 ug/mL (value in parenthesis) ([1]; C. glabrata)	FICI of combination resulting in fluconazole MIC of: 8 ug/mL (value in parenthesis) ([1]; C. glabrata)	MIC [1, 5] [µg/mL]	MIC [1, 6] [µg/mL]	Multiple of compound MIC to synergize fluconazole MIC to 2 ug/mL [1]	Multiple of compound MIC to synergize fluconazole MIC to 4 ug/mL [1]	Multiple of compound MIC to synergize fluconazole MIC to 8 ug/mL [1]	Concentration of Methylgene compound to synergize fluconazole MIC to 2 ug/mL ([1]; C. glabrata) [µg/mL]	Concentration of Methylgene compound to synergize fluconazole MIC to 4 ug/mL ([1]; C. glabrata) [µg/mL]	Concentration of Methylgene compound to synergize fluconazole MIC to 8 ug/mL ([1]; C. glabrata) [µg/mL]	MIC [2, 7] [µg/mL]	MIC [2, 8] [µg/mL]	MIC [3, 7] [µg/mL]	MIC [3, 8] [µg/mL]	MIC [4, 7] [µg/mL]	MIC [4, 8] [µg/mL]	Compound
0.375	0.500	0.625	0.266	0.281	0.188	16	16	(¼x)	(¼x)	(⅛x)	4	4	2	> 8	> 8	> 8	> 8	> 8	> 8	O=C(Cc1ccc(CCCCc2ccc(NC(=O)CO)cc2)cc1)NO [Example 36, N-hydroxy-2-(4-(4-(4-(2-hydroxyacetamido)phenyl)butyl)phenyl)acetamide]
0.375	0.500	0.625	0.266	0.281	0.188	4	4	(¼x)	(¼x)	(⅛x)	1	1	0.5	> 64	> 64	64 (≈ 124 µM)	> 64	> 64	> 64	COCCOCCOCCOCCC(=O)Nc1ccc(CCCCc2ccc(CC(=O)NO)cc2)cc1 [Example 37, N-(4-(4-(4-(2-(hydroxyamino)-2-oxoethyl)phenyl)butyl)phenyl)-2,5,8,11-tetraoxatetradecan-14-amide]
0.563	0.375	0.375	0.516	0.281	0.188	16	16	(½x)	(¼x)	(⅛x)	8	4	2	> 64	> 64	16 (≈ 36.1 µM)	16 (≈ 36.1 µM)	> 64	> 64	CN(C)CCSCC(=O)Nc1ccc(CCCCc2ccc(CC(=O)NO)cc2)cc1 [Example 38, 2-(2-(dimethylamino)ethylthio)-N-(4-(4-(4-(2-(hydroxyamino)-2-oxoethyl)phenyl)butyl)phenyl)acetamide]
